Measurements: ChEMBL document CHEMBL1155091, “Structure, antimicrobial activity and DNA-binding properties of the cobalt(II)-sparfloxacin complex” (2008)
≈ marks a conversion by molar mass, not a printed value.

What was measured:
Escherichia coli = assay: Antimicrobial activity against Escherichia coli; format: functional
Staphylococcus aureus = assay: Antimicrobial activity against Staphylococcus aureus; format: functional
DNA = assay: Binding affinity to calf thymus DNA; format: nucleic-acid assay; conditions: Bos taurus
Pseudomonas aeruginosa = assay: Antimicrobial activity against Pseudomonas aeruginosa; format: functional

## C[C@@H]1CN(c2c(F)c(N)c3c(=O)c(C(=O)O)cn(C4CC4)c3c2F)C[C@H](C)N1 [SPARFLOXACIN]
Escherichia coli
  MIC: 8 µg/mL (≈ 20.4 µM)
Staphylococcus aureus
  MIC: 0.5 µg/mL (≈ 1.27 µM)
DNA
  Kb: 17100 M⁻¹
Pseudomonas aeruginosa
  MIC: 0.25 µg/mL (≈ 0.637 µM)
